Test results reported in US11744819B2, “Antibiotic cannabinoid-terpene formulations” (priority 2019, dated 2023).
Converted amounts (≈) assume the structure as drawn. Like-named read-outs stand apart in the source and are kept apart here.

Key:
[1] = test system: E. faecium 3303; assay: microbe, parasite or virus in culture; type: cell-based, Enterococcus faecium; details: E. faecium 3303; for Max. fold change in MIC: decrease
Excerpt: In therapeutic applications, synergy between active ingredients occurs when an observed combined therapeutic effect is greater than the sum of therapeutic effects of individual active ingredients, or a new therapeutic effect is produced that the active ingredients could not produce alone. […] In this context, the enhancement of therapeutic effect may take the form of increased efficacy or potency and/or decreased adverse effects. The synergistic effect may be mediated in whole or in part by the pharmacokinetics and/or pharmacodynamics of the active ingredients in a subject, so that the amount and proportion of the ingredients in the formulation may be synergistic in vivo. This in vivo synergy may be effected with a formulation that includes the active ingredients in amounts and proportions that are also synergistic in in vitro assays of efficacy. As used herein, the term “synergistically effective amounts” accordingly refers to amounts that are synergistic in vivo and/or in vitro. A numeric quantification of synergy is often expressed as a fractional inhibitory concentration index (FICI), which represents the sum of the fractional inhibitory concentrations (FICs) of each drug tested, where the FIC is determined for each drug by dividing the minimum inhibitory concentration (MIC, the lowest concentration of the drug which prevents visible growth of the bacterium in a standard in vitro assay-standard colorometric assay based on resazurin) of each drug when used in combination by the MIC of each drug when used alone. In very general terms, a FICI lower or higher than 1 indicates positively correlated activity (at least additive or potentiation) or an absence of positive interactions, respectively. More definitively, synergy of two compounds may be conservatively defined as a FICI of ::::0.5 (see Odds, 2003; with additivity or potentiation corresponding to a FICI of >0.5 to ::::0.75; no interaction (indifference) corresponding to a FICI of >1 to ::::4; and antagonism corresponding to a FICI of >>4). Synergy of three compounds has been defined as a FICI of ::::1.0. (Berenbaum, 1978; Yu et al., 1980). To estimate the optimal concentrations in triple combinations, the optimal concentrations of trans-caryophyllene and cannabinoid were utilized in combination with a series of daptomycin dilutions.
(§1) Pre-cultures of bacteria growing in their corresponding liquid media (defined below) were diluted to an 00600 of 0.0025 and 100 μl was added to 100 μl of medium containing serial 2-fold dilutions of cannabinoid (cannabinoid stocks, in methanol or acetonitrile for acidic forms, were diluted in growth medium) in 96-well plates. Plates were then incubated for 20-24 h at 37° C., and growth was recorded as 00600 in a Thermo Scientific™ Varioskan™ Flash Multimode Reader.
Method for Tables 4-7. Interaction of Cannabinoids CBC, CBD and CBG with Terpenes and Daptomycin:
(§2) FICI values was determined in a 96 well checkerboard format using the MIC assay for cannabinoids (compound A), terpenes (compound B), and daptomycin (compound C) alone and in combinations. Terpene stocks were prepared in DMSO and diluted in the growth medium. The fractional inhibitory concentration for each compound was calculated as follows: FICA=(MIC of compound A in the presence of compound B)/(MIC of compound A alone). Similarly, the FICs for compounds Band C were calculated. The FICI was calculated as FICA plus FICs plus FICc.

[2] = test system: Staphylococcus epidermidis ATCC 14990; assay: MIC determination; type: cell-based; details: Staphylococcus epidermidis, ATCC14990
[3] = test system: Mycobacterium tuberculosis H37Rv; assay: MIC determination (PrestoBlue); type: cell-based; details: Mycobacterium tuberculosis, H37RV
[4] = test system: Enterococcus faecium 33D3; details: E. faecium isolate 3303
[5] = test system: E. faecium clinical isolate 58C9 (vancomycin and daptomycin resistant); details: E. faecium isolate 58c9
[6] = test system: E. faecium clinical isolate 69C6 (vancomycin resistant); assay: microbe, parasite or virus in culture; details: Enterococcus faecium
[7] = test system: Staphylococcus aureus MRSA; assay: microbe, parasite or virus in culture; type: cell-based
[8] = test system: Enterococcus faecalis; assay: MIC determination; type: cell-based
[9] = test system: E. faecium VRE 55A6; assay: microbe, parasite or virus in culture; type: cell-based, Enterococcus faecium
Excerpt: In therapeutic applications, synergy between active ingredients occurs when an observed combined therapeutic effect is greater than the sum of therapeutic effects of individual active ingredients, or a new therapeutic effect is produced that the active ingredients could not produce alone. […] In this context, the enhancement of therapeutic effect may take the form of increased efficacy or potency and/or decreased adverse effects. The synergistic effect may be mediated in whole or in part by the pharmacokinetics and/or pharmacodynamics of the active ingredients in a subject, so that the amount and proportion of the ingredients in the formulation may be synergistic in vivo. This in vivo synergy may be effected with a formulation that includes the active ingredients in amounts and proportions that are also synergistic in in vitro assays of efficacy. As used herein, the term “synergistically effective amounts” accordingly refers to amounts that are synergistic in vivo and/or in vitro. A numeric quantification of synergy is often expressed as a fractional inhibitory concentration index (FICI), which represents the sum of the fractional inhibitory concentrations (FICs) of each drug tested, where the FIC is determined for each drug by dividing the minimum inhibitory concentration (MIC, the lowest concentration of the drug which prevents visible growth of the bacterium in a standard in vitro assay-standard colorometric assay based on resazurin) of each drug when used in combination by the MIC of each drug when used alone. In very general terms, a FICI lower or higher than 1 indicates positively correlated activity (at least additive or potentiation) or an absence of positive interactions, respectively. More definitively, synergy of two compounds may be conservatively defined as a FICI of ::::0.5 (see Odds, 2003; with additivity or potentiation corresponding to a FICI of >0.5 to ::::0.75; no interaction (indifference) corresponding to a FICI of >1 to ::::4; and antagonism corresponding to a FICI of >>4). […] (Berenbaum, 1978; Yu et al., 1980). To estimate the optimal concentrations in triple combinations, the optimal concentrations of trans-caryophyllene and cannabinoid were utilized in combination with a series of daptomycin dilutions.
as §1, §2

[10] = pairwise, with trans-caryophyllene
[11] = triple, with daptomycin and trans-caryophyllene
[12] = E. faecium VRE 55A6, pairwise, with daptomycin
[13] = E. faecium VRE 55A6, pairwise, with trans-caryophyllene
[14] = E. faecium VRE 55A6, triple, with daptomycin and trans-caryophyllene

## CCCCCc1cc(O)c(C/C=C(\C)CCC=C(C)C)c(O)c1 [CBG, cannabigerol]
[1]; pairwise, with daptomycin
  MIC In combination: 0.125 µg/mL
  Max. fold change in MIC: 32″′ fold
[1]; [10]
  MIC In combination: 0.125 µg/mL
  Max. fold change in MIC: 16″′ fold
[1]; [11]
  MIC In combination: 0.25 µg/mL
  Max. fold change in MIC: 4 fold
[2]
  MIC: 1 to 2 µg/mL (≈ 3.16 to 6.32 µM)
[3]; Media 7H9, read-out: MIC
  MIC: 2 µg/mL (≈ 6.32 µM)
[3]; Media PB, read-out: MIC
  MIC: 2 µg/mL (≈ 6.32 µM)
[4]
  Fold reduction in daptomycin MIC in combination with the cannabinoid: 32 Fold
[5]
  Fold reduction in daptomycin MIC in combination with the cannabinoid: 64 Fold
[6]
  MIC: 1 µg/mL (≈ 3.16 µM)
[7]
  MIC: 1 µg/mL (≈ 3.16 µM)
[8]
  MIC: 1 µg/mL (≈ 3.16 µM)
[9]; E. faecium VRE 55A6, compound alone in checkerboard
  MIC Alone: 2 µg/mL
[9]; [12]
  MIC In combination: 2 µg/mL
  Max. fold change in MIC: 2 fold
[9]; [13]
  MIC In combination: 2 µg/mL
  Max. fold change in MIC: none
[9]; [14]
  MIC In combination: 0.5 µg/mL
  Max. fold change in MIC: 4 fold
[9]; Enterococcus faecium, VRE, read-out: MIC Alone, E. faecium VRE 55A6, compound alone in checkerboard
  MIC: 4 µg/mL
